Read-outs that look alike come from different tables or passages of the source. Blank lines part the entries; values can stand above or below the molecule they belong to.
How the values were obtained:
NRAS G12C = NRAS G12C (Homo sapiens, UniProt P01111+P62937, G12C); experiment: Disruption of BRAF RBD interaction with Ras (FRET / MOA assay); type: biochemical
Procedure, shortened: (§1)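 Compounds were titrated in 10 points (3-fold, starting at 30 μM final) and assessed for promoting a Ras–Cyclophilin A ternary complex that blocks BRAF^RBD binding.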

KRAS G12C = KRAS G12C (Homo sapiens, UniProt P01116+P62937, G12C); experiment: Disruption of BRAF RBD interaction with K-Ras (FRET / MOA assay); type: biochemical
Procedure: (§2) Compound is present in plate wells as a 10-point 3-fold dilution series starting at a final concentration of 30 μM. […] Compounds that facilitate disruption of a Ras:RAF complex are identified as those eliciting a decrease in the TR-FRET ratio relative to DMSO control wells.
(§3) Note—The following protocol describes a procedure for monitoring disruption of K-Ras G12C (GMP-PNP) binding to BRAF^RBD by a compound of the invention. This protocol may also be executed substituting other Ras proteins or nucleotides.
(§4) The purpose of this biochemical assay was to measure the ability of test compounds to facilitate ternary complex formation between a nucleotide-loaded K-Ras isoform and Cyclophilin A; the resulting ternary complex disrupts binding to a BRAF^RBD construct, inhibiting K-Ras signaling through a RAF effector. Data is reported as IC50 values.
(§5) Compound was present in plate wells as a 10-point 3-fold dilution series starting at a final concentration of 30 μM. […] Compounds that facilitate disruption of a K-Ras:RAF complex were identified as those eliciting a decrease in the TR-FRET ratio relative to DMSO control wells.

NCI-H358 (K-Ras G12C) = experiment: CellTiter-Glo Cell Viability Assay; type: cell-based; conditions: Homo sapiens, NCI-H358, 120 h; H358, 5-day treatment
Procedure: (§6) Determination of Cell Viability in RAS Mutant Cancer Cell Lines
(§7) Protocol: CellTiter-Glo® Cell Viability Assay
(§8) Note—The following protocol describes a procedure for monitoring cell viability of K-Ras mutant cancer cell lines in response to a compound of the invention. Other RAS isoforms may be employed, though the number of cells to be seeded will vary based on cell line used.
(§9) Test compounds (132.5 nl) were directly dispensed into the assay plates containing cells. […] On day 5, assay plates and their contents were equilibrated to room temperature for approximately 30 minutes. […] Luminescence was measured using the PerkinElmer Enspire. Data were normalized by the following: (Sample signal/Avg. DMSO)*100. The data were fit using a four-parameter logistic fit.

KRAS G12V = KRAS G12V (Homo sapiens, UniProt P01116+P62937, G12V); experiment: Disruption of BRAF RBD interaction with K-Ras (FRET / MOA assay); type: biochemical; conditions: read-out: KRAS G12V FRET data IC50
Procedure: as §2, §3, §4, §5

KRAS G13C = KRAS G13C (Homo sapiens, UniProt P01116+P62937, G13C); experiment: as above; type: biochemical; conditions: read-out: KRAS G13C FRET data IC50
Procedure: as §2, §3, §4, §5

NRAS Q61R = NRAS Q61R (Homo sapiens, UniProt P01111+P62937, Q61R); experiment: Disruption of BRAF RBD interaction with Ras (FRET / MOA assay); type: biochemical
Procedure, shortened: as §1

NRAS WT = NRAS WT (Homo sapiens, UniProt P01111+P62937); experiment: as above; type: biochemical
Procedure, shortened: as §1

NRAS Q61K = NRAS Q61K (Homo sapiens, UniProt P01111+P62937, Q61K); experiment: as above; type: biochemical
Procedure, shortened: as §1

KRAS Q61H = KRAS Q61H (Homo sapiens, UniProt P01116+P62937, Q61H); experiment: Disruption of BRAF RBD interaction with K-Ras (FRET / MOA assay); type: biochemical
Procedure: as §2, §3, §4, §5

Capan-1 (K-Ras G12V) = experiment: CellTiter-Glo Cell Viability Assay; type: cell-based; conditions: Homo sapiens, 120 h; Capan-1, 5-day treatment
Procedure: as §6, §7, §8, §9

SWi573 = conditions: cited from earlier work
[1] = read-out: KRAS G12C FRET data IC50
[2] = read-out: NRAS Q61R FRET data IC50
[3] = read-out: NRAS WT FRET data IC50
[4] = read-out: NRAS Q61K FRET data IC50
[5] = read-out: KRAS Q61H FRET data IC50

KRAS Q61H, sequence (P01116 1-188 isoform P01116-2 Q61H): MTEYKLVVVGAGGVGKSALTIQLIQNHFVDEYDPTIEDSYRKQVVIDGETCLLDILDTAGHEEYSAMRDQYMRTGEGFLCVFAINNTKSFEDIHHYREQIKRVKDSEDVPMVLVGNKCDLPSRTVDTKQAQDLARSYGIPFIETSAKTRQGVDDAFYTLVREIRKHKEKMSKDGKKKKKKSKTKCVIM
KRAS Q61H, sequence (P62937 whole entry): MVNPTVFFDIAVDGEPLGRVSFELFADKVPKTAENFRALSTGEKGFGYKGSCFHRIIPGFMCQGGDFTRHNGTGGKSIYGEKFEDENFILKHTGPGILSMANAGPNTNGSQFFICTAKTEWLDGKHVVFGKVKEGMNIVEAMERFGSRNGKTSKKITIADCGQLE
NRAS Q61K, sequence (P01111 whole entry Q61K): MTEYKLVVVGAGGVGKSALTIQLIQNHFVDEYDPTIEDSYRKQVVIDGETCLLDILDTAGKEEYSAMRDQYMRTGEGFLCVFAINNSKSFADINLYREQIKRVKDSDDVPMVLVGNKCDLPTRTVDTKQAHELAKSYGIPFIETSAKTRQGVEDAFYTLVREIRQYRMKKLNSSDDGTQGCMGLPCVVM
NRAS Q61K, sequence (P62937 whole entry): as the sequence (P62937 whole entry) above
NRAS WT, sequence (P01111 whole entry): as the sequence (P01111 whole entry Q61K) above, with K61Q counted along it
NRAS WT, sequence (P62937 whole entry): as the sequence (P62937 whole entry) above
NRAS Q61R, sequence (P01111 whole entry Q61R): as the sequence (P01111 whole entry Q61K) above, with K61R counted along it
NRAS Q61R, sequence (P62937 whole entry): as the sequence (P62937 whole entry) above
KRAS G12C, sequence (P01116 1-188 isoform P01116-2 G12C): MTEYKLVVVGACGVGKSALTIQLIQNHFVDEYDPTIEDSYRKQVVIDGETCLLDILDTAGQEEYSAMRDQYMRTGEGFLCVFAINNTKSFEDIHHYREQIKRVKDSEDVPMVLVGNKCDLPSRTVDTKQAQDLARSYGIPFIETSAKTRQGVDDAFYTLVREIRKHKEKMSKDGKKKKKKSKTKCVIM
KRAS G12C, sequence (P62937 whole entry): as the sequence (P62937 whole entry) above
NRAS G12C, sequence (P01111 whole entry G12C): as the sequence (P01111 whole entry Q61K) above, with G12C, K61Q counted along it
NRAS G12C, sequence (P62937 whole entry): as the sequence (P62937 whole entry) above
KRAS G13C, sequence (P01116 1-188 isoform P01116-2 G13C): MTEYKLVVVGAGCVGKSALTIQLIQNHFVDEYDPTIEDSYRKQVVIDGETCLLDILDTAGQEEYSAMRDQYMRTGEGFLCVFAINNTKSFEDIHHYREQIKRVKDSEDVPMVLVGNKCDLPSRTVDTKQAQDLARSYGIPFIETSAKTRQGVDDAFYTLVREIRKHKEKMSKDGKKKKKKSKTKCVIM
KRAS G13C, sequence (P62937 whole entry): as the sequence (P62937 whole entry) above
KRAS G12V, sequence (P01116 1-188 isoform P01116-2 G12V): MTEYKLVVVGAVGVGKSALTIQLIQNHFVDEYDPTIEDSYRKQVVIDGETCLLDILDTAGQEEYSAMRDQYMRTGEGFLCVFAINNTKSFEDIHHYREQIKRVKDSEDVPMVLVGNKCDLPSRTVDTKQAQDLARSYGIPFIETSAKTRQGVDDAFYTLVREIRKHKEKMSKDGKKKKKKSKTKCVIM
KRAS G12V, sequence (P62937 whole entry): as the sequence (P62937 whole entry) above

SMILES: CC(C)[Si](Oc1cc2cc(c1)-c1ccc3[nH]c(I)c(c3c1)CC(C)(C)COC(=O)[C@@H]1CCCN(N1)C(=O)[C@@H](NC(=O)OC(C)(C)C)C2)(C(C)C)C(C)C
ring closure, yield of all isomers (from CC(C)[Si](Oc1cc(C[C@H](NC(=O)OC(C)(C)C)C(=O)N2CCC[C@@H](C(=O)O)N2)cc(-c2ccc3[nH]c(I)c(CC(C)(C)CO)c3c2)c1)(C(C)C)C(C)C, ester bond, EDCl/HOBt/DIPEA, DCM, 22.8 mM, 25.0 °C, 16.0 h): 50%

SMILES: CCn1c(-c2cc(N3CCN(C(=O)OCc4ccccc4)CC3)cnc2[C@H](C)OC)c2c3cc(ccc31)-c1csc(n1)C[C@H](NC(=O)OC(C)(C)C)C(=O)N1CCC[C@H](N1)C(=O)OCC(C)(C)C2
ring closure, yield of all isomers (from CCn1c(-c2cc(N3CCN(C(=O)OCc4ccccc4)CC3)cnc2[C@H](C)OC)c(CC(C)(C)CO)c2cc(-c3csc(C[C@H](NC(=O)OC(C)(C)C)C(=O)N4CCC[C@@H](C(=O)O)N4)n3)ccc21, ester bond, EDCl/HOBt/DIPEA, MeCN, 10.34 mM, 25.0 °C, 16.0 h): 54.8%

SMILES: CCn1c(-c2cccnc2[C@H](C)OC)c2c3cc(ccc31)-c1csc(n1)C[C@H](NC(=O)OC(C)(C)C)C(=O)N1CCC[C@H](N1)C(=O)OCC(C)(C)C2
ring closure, yield of all isomers (from CCn1c(-c2cccnc2[C@H](C)OC)c(CC(C)(C)CO)c2cc(-c3csc(C[C@H](NC(=O)OC(C)(C)C)C(=O)N4CCC[C@@H](C(=O)O)N4)n3)ccc21, ester bond, EDCl/HOBt/DIPEA, DCM, 12.65 mM, 25.0 °C, 16.0 h): 81%

SMILES: CCn1c(-c2cccnc2[C@H](C)OC)c2c3cc(ccc31)-c1csc(n1)C[C@H](NC(=O)OC(C)(C)C)C(=O)N1CC[C@H](C)[C@H](N1)C(=O)OCC(C)(C)C2
ring closure, yield of all isomers (from CCn1c(-c2cccnc2[C@H](C)OC)c(CC(C)(C)COC(=O)[C@H]2NN(C(=O)[C@H](Cc3nc(Br)cs3)NC(=O)OC(C)(C)C)CC[C@@H]2C)c2cc(B3OC(C)(C)C(C)(C)O3)ccc21, cc_pd bond, Pd(DTBpf)Cl2, K3PO4, dioxane, 17.5 mM, 60.0 °C, 1.0 h): 44.7%

SMILES: CCn1c(-c2cccnc2[C@H](C)OC)c2c3cc(ccc31)-c1csc(n1)[C@@H](OC)[C@H](N(Cc1ccccc1)Cc1ccccc1)C(=O)N1CCC[C@H](N1)C(=O)OCC(C)(C)C2
ring closure, yield of all isomers (from CCn1c(-c2cccnc2[C@H](C)OC)c(CC(C)(C)COC(=O)[C@@H]2CCCN(C(=O)[C@H]([C@H](OC)c3nc(Br)cs3)N(Cc3ccccc3)Cc3ccccc3)N2)c2cc(B3OC(C)(C)C(C)(C)O3)ccc21, cc_pd bond, Pd(DtBPF)Cl2, dioxane, 40.0 mM, 80.0 °C, 2.0 h): 44.4%

IC50 (NRAS G12C): < 0.01 µM
IC50 (KRAS G12C; [1]): < 0.01 µM
SMILES: CCn1c(-c2cccnc2[C@H](C)OC)c2c3cc(ccc31)-c1cc(O)cc(c1)C[C@H](NC(=O)[C@H](C(C)C)N(C)C(=O)[C@@H]1C[C@@H]1O)C(=O)N1CCC[C@H](N1)C(=O)OCC(C)(C)C2 (atropisomer, axis not shown) [Compound A323]

IC50 (NRAS G12C): < 0.01 µM
IC50 (NCI-H358 (K-Ras G12C)): < 0.01 µM
IC50 (KRAS G12V): < 0.01 µM
IC50 (KRAS G12C; [1]): < 0.01 µM
IC50 (KRAS G13C): < 0.01 µM
SMILES: CCn1c(-c2cccnc2[C@H](C)OC)c2c3cc(ccc31)-c1cc(O)cc(c1)C[C@H](NC(=O)[C@H](C(C)C)N(C)C(=O)[C@@H]1CN(C(=O)OC)C[C@@H]1C)C(=O)N1CCC[C@H](N1)C(=O)OCC(C)(C)C2 (atropisomer, axis not shown) [Compound A325]

SMILES: CO[C@@H](C)c1ncccc1-c1c2c3cc(ccc3n1CC(F)(F)F)-c1csc(n1)C[C@H](NC(=O)[C@H](C(C)C)N(C)C(=O)N1CC(N(C)C)C1)C(=O)N1CCC[C@H](N1)C(=O)OCC(C)(C)C2 (atropisomer, axis not shown) [Compound A328]
IC50 (NRAS Q61R; [2]): > 10 µM
IC50 (NRAS WT; [3]): > 10 µM
IC50 (NRAS Q61K; [4]): > 10 µM
IC50 (KRAS G12C; [1]): > 10 µM
IC50 (KRAS Q61H; [5]): > 10 µM

IC50 (KRAS G13C): < 0.01 µM
SMILES: CCn1c(-c2cccnc2[C@H](C)OC)c2c3cc(ccc31)-c1cc(O)cc(c1)C[C@H](NC(=O)[C@H](C(C)C)N(C)C(=O)[C@H]1CCN(C(=O)C(C)(C)NC)C1)C(=O)N1CCC[C@H](N1)C(=O)OCC(C)(C)C2 (atropisomer, axis not shown) [Compound A381]

IC50 (NRAS Q61R; [2]): 0.01 to 0.1 µM
IC50 (NRAS Q61K; [4]): 0.01 to 0.1 µM
IC50 (NCI-H358 (K-Ras G12C)): < 0.01 µM
SMILES: CCn1c(-c2cc(N3CCN(C)CC3)cnc2[C@H](C)OC)c2c3cc(ccc31)-c1csc(n1)C[C@H](NC(=O)[C@H](C(C)C)N(C)C(=O)[C@@H]1OCC[C@@H]1c1ccncc1)C(=O)N1CCC[C@H](N1)C(=O)OCC(C)(C)C2 (atropisomer, axis not shown) [Compound A450]
IC50 (Capan-1 (K-Ras G12V)): < 0.01 µM

SMILES: CCn1c(-c2cc(N3CCN(C)CC3)cnc2[C@H](C)OC)c2c3cc(ccc31)-c1csc(n1)C[C@H](NC(=O)[C@H](C(C)C)N(C)C(=O)N1CC(C3COC3)C1)C(=O)N1CCC[C@H](N1)C(=O)OCC(C)(C)C2 (atropisomer, axis not shown) [Compound A465]
IC50 (NRAS Q61R; [2]): 0.01 to 0.1 µM
IC50 (NRAS Q61K; [4]): 0.01 to 0.1 µM
IC50 (Capan-1 (K-Ras G12V)): < 0.01 µM
IC50 (NCI-H358 (K-Ras G12C)): < 0.01 µM

IC50 (NRAS Q61R; [2]): 0.01 to 0.1 µM
IC50 (NCI-H358 (K-Ras G12C)): < 0.01 µM
SMILES: CCn1c(-c2cc(N3CCN(C)CC3)cnc2[C@H](C)OC)c2c3cc(ccc31)-c1csc(n1)C[C@H](NC(=O)[C@H](C1CCCC1)N(C)C(=O)[C@@H]1OCC[C@@H]1c1ccccc1)C(=O)N1CCC[C@H](N1)C(=O)OCC(C)(C)C2 (atropisomer, axis not shown) [Compound A593]
IC50 (Capan-1 (K-Ras G12V)): < 0.01 µM

IC50 (NRAS Q61R): > 10 µM
IC50 (NRAS WT): > 10 µM
IC50 (NRAS Q61K): > 10 µM
IC50 (KRAS G12C): > 10 µM
IC50 (KRAS Q61H): 1 to 10 µM
SMILES: CCn1c(-c2cccnc2[C@H](C)OC)c2c3cc(ccc31)-c1cc(cc(NC(C)=O)c1)C[C@H](NC(=O)[C@H](C(C)C)N(C)C(C)=O)C(=O)N1CCC[C@H](N1)C(=O)OCC(C)(C)C2 (racemic) [Compound A145]

SMILES: CCn1c(-c2cccnc2[C@H](C)OC)c2c3cc(ccc31)-c1cc(cc(S(C)(=O)=O)c1)C[C@H](NC(=O)[C@H](C(C)C)N(C)C(C)=O)C(=O)N1CCC[C@H](N1)C(=O)OCC(C)(C)C2 (racemic) [Compound A154]
IC50 (NRAS Q61R; [2]): > 10 µM
IC50 (NRAS WT; [3]): > 10 µM
IC50 (NRAS Q61K; [4]): > 10 µM
IC50 (KRAS G12C; [1]): > 10 µM
IC50 (KRAS Q61H; [5]): > 10 µM

SMILES: CCn1c(-c2cccnc2[C@H](C)OC)c2c3cc(ccc31)-c1cc(O)cc(c1)C[C@H](NS(=O)(=O)CC#N)C(=O)N1CCC[C@H](N1)C(=O)OCC(C)(C)C2 (racemic) [Compound A186]
IC50 (NRAS Q61R): > 10 µM
IC50 (NRAS WT; [3]): > 10 µM
IC50 (NRAS Q61K; [4]): > 10 µM
IC50 (KRAS G12C): > 10 µM
IC50 (KRAS Q61H; [5]): > 10 µM

SMILES: CCn1c(-c2cccnc2[C@H](C)OC)c2c3cc(ccc31)-c1cc(O)cc(c1)C[C@H](NS(=O)(=O)N1CCC1)C(=O)N1CCC[C@H](N1)C(=O)OCC(C)(C)C2 (racemic) [Compound A189]
IC50 (NRAS Q61R; [2]): > 10 µM
IC50 (NRAS WT; [3]): > 10 µM
IC50 (NRAS Q61K; [4]): > 10 µM
IC50 (KRAS G12C; [1]): > 10 µM
IC50 (KRAS Q61H; [5]): > 10 µM

SMILES: CCn1c(-c2cccnc2[C@H](C)OC)c2c3cc(ccc31)-c1cc(O)cc(c1)C[C@H](NS(=O)(=O)C1CS(=O)(=O)C1)C(=O)N1CCC[C@H](N1)C(=O)OCC(C)(C)C2 (racemic) [Compound A191]
IC50 (NRAS Q61R; [2]): > 10 µM
IC50 (NRAS WT; [3]): > 10 µM
IC50 (NRAS Q61K; [4]): > 10 µM
IC50 (KRAS G12C; [1]): > 10 µM
IC50 (KRAS Q61H; [5]): > 10 µM

SMILES: C=CC(=O)N1CCN(c2nc(=O)n(-c3c(C)ccnc3C(C)C)c3nc(-c4c(O)cccc4F)c(F)cc23)[C@@H](C)C1 [AMG510]
sensitivity of SWi573 to inhibitor (SWi573): insensitive

— patent US20230374035A1, “RAS INHIBITORS” (Revolution Medicines, Inc., priority 2019, published 2023)
